Laboratory results from paper PMC6611794, “Development of a high-throughput strategy for discovery of potent analogues of antibiotic lysocin E” (Nature Communications, 2019).
Like-named read-outs stand apart in the source and are kept apart here. Where a SMILES comes first, the peptide text is derived from it. Bridges are numbered along the chain shown (N, C = ends). [ ]: non-standard residue; d: D form. The star is where a group is joined. Hexanoyl(3R-OH,5-Me) = CC(C)C[C@@H](O)CC(=O)*; dNMeF = CN[C@H](Cc1ccccc1)C(=O)O

Tests used:
[1] = On-bead menaquinone complexation assay (fluorescence of 2H); format: binding; conditions: single library bead (hit beads >1000 a.u.); average of three readings
Description: Next, the feasibility of the on-bead complexation assay was assessed using bead-linked lysocin E 30 and MK-4 (2). Our initial assay based on the finding that 1 and 2 form a red precipitate upon complexation (Supplementary Fig. 2) was not robust, because the magnitude of the red color was not proportional to the amount of captured 2 (Fig. 2b, c). We therefore developed a fluorescence-based method for quantifying 2 by reducing its naphthoquinone moiety to fluorescent hydroquinone 2H. One bead of 30 was incubated with 2 in MeOH, washed by MeOH in a microplate well, and then the bead-bound 2 was eluted under more forcing hydrophobic conditions (n-BuOH at 50 °C). The eluate containing 2 was treated with NaBH4 in n-BuOH to produce 2H[46]. The fluorescence intensity of 2H was evaluated to determine the quantity of 2 bound to one bead of 30. The method was found with a small margin of error (1026 ± 64 a.u.), indicating its high accuracy (Fig. 2a and Supplementary Fig. 3). Importantly, the structure of 1 remained intact during the complexation assay as judged by UHPLC and mass analyses.
General procedures for menaquinone complexation assay. To the bead-linked lysocin E analogues in LibraTube was added a solution of menaquinone-4 (2) in MeOH (10 mM, 1.0 mL/1000 beads). The mixture was incubated at room temperature for 12 h. A suspension of the beads in MeOH (200 beads/200 µL) was transferred to a 2.0 mL microtube.
Each bead in the microtube was transferred to each well of a 96-well filtration plate (278011, Thermo Fisher Scientific, 1 bead/well) with the solution of 2 (20 µL/bead) using a micropipette. To each well was added MeOH (400 µL), and the beads was filtered by gravity flow (× 3). The beads in the plate were dried under vacuum for 0.5–1 h. The dried beads were transferred to a 96-well PCR plate (652270, Greiner bio-one, 1 bead/well) with MeOH (20 µL/well) using a micropipette. The solution was removed under a stream of Ar at 40 °C to give the 2-bound bead-linked peptides.
To the 2-bound bead-linked peptides in the plate was added n-BuOH (30 µL/well) at room temperature .
The suspension was incubated at 50 °C for 1 h. The resultant mixture in the plate was centrifuged at 3500 × g at room temperature for 10 sec . The supernatant in each well was transferred to the corresponding well of a black polystyrene flat -bottom 96-well plate (655086, Greiner bio-one). The solution was concentrated under a stream of Ar at 40 °C to give the eluted 2.
To the above eluted 2 in the plate was added n-BuOH (25 µL/well) at room temperature. The plate was vortexed at room temperature for 10 min. To the resultant solution was added a solution of NaBH4 in n-BuOH (1.0 mM, 25 µL/well). The plate was vortexed at room temperature for 10 min. The fluorescence of menahydroquinone (2H, Ex. 250 nm/Em. 430 nm) of each well was measured at room temperature every 3 min (0, 3, and 6 min) on Gemini EM microplate reader (Molecular Devices) . The three fluorescence intensities of each bead were averaged and plotted against the bead number.
Evaluation of menaquinone complexation activities of the selected bead-linked peptides. Bead-linked peptides 30, BLP1, and BLP2 were synthesized according to the above described procedures (loading rate:
0.222 mmol/g). The bead-linked peptides were subjected to the MK complexation assay described above.
The obtained fluorescent intensities of 2H (arbitrary unit) were 1026 ± 64 for 30, 396 ± 27 for BLP1, 72.9 ± 2.0 for BLP2, and 41.6 ± 0.1 for background adsorption (no bead), respectively (Supplementary Figure 3).

[2] = Liposomal membrane disruption assay (carboxyfluorescein LUVs); format: biochemical
Description: Preparation of LUVs consisting of PC/PG. Carboxyfluorescein-encapsulated large unilamellar vesicles (LUVs) were prepared according to the thin-film hydration method, followed by extrusion through Nuclepore polycarbonate filters (GE Healthcare) mounted in the mini-extruder apparatus (Avanti Polar Lipids). A solution of egg yolk phosphatidylcholine (9.60 mg, 12.5 µmol) and egg yolk phosphatidylglycerol (9.78 mg, 12.5 µmol) in CHCl3 (0.505 mL) was concentrated, and dried under vacuum to form a lipid thin film. The thin film was hydrated and suspended in carboxyfluorescein-containing buffer solution [0.500 mL, 5 mM 4-(2-hydroxyethyl)-1-piperazineethanesulfonic acid (HEPES), 20 mM carboxyfluorescein, pH 7.5] by vortexing and sonication. After five -times freeze-thaw cycles, the lipid suspension was extruded 19 times through a polycarbonate filter with 0.40 µm of pore size in the diameter. The external carboxyfluorescein -containing buffer was replaced w ith a carboxyfluorescein -free buffer solution [20 mM HEPES, 1 mM ethylenediaminetetraacetic acid (EDTA), pH 7.5] through size exclusion chromatography using disposable PD-10 column (GE Healthcare). Concentration of egg yolk phosphatidylcholine was determined by using Phospholipid C-Test Wako (Fujifilm Wako Pure Chemical). The final concentration of egg yolk phosphatidylcholine was adjusted to 4.0 µM with the carboxyfluorescein-free buffer solution, and the solution was used for membrane disruption assay. […]
Membrane disruption assay. […]
to various concentrations as 5-fold serial dilutions. The solution of peptides (2 µL/well) and the carboxyfluorescein-encapsulated LUV suspension (200 µL/well) were mixed in black polystyrene flat-bottom 96-well plates. The final concentration of peptides ranged from 2970 nM to 0.950 nM. The plates were vortexed at room temperature for 30 min, and then fluorescence of carboxyfluorescein (Ex. 490 nm/Em. 517 nm) of each well was measured at room temperature on Gemini EM microplate reader. Trion X-100/H2O (5/95, 2 µL), MeOH/H2O (4/6, 2 µL), and the LUV suspension were mixed in each plate to determine 100% lysis. MeOH/H2O (4/6, 2 µL) and the LUV suspension were mixed in each plate to determine 0% lysis.
The membrane disruption activities of tested peptides (I) were normalized against 100% lysis by Triton X -100 […]
(Imax) and 0% lysis by MeOH/H2O (4/6) (I0) as following, where Ix is the fluorescence intensity (Supplementary Equation 2).
I = 100 × (Ix – I0) / (Imax – I0) (2)
The membrane-disrupting activities were evaluated as half-maximal response (EC50, nM) values by means of three replicates. Sigmoidal curve fittings were performed on R2 with drc package (Supplementary Figs S7–S9).3 Two-parameter logistic model was applied for the fitting.

With `CC[C@H](C)[C@@H]1NC(=O)[C@@H](Cc2c[nH]c3ccccc23)NC(=O)[C@@H](Cc2ccc(O)cc2)NC(=O)[C@H](CCC(=O)O)NC(=O)[C@@H](CCCNC(=N)N)NC(=O)[C@H](CC(C)C)NC(=O)[C@@H](Cc2ccccc2)N(C)C(=O)CNC(=O)[C@H](CC(=O)O)NC(=O)[C@@H](CCCNC(=N)N)NC(=O)[C@@H](NC(=O)C[C@H](O)CC(C)C)[C@@H](C)OC(=O)[C@H]([C@@H](C)O)NC1=O` [Peptide A17] ({Hexanoyl(3R-OH,5-Me)}-T[dR]DG[dNMeF]L[dR]E[dY][dW]IT; ester 1-C) the “fluorescence intensity of 2H” value [1] was 1396.02 a.u, the EC50 ([2]; 30 min, room temperature, mean ± SD of three independent experiments, read-out: EC50 PC/PG) was over 1500 nM and the EC50 ([2]; PC/PG LUVs, 1st experiment, read-out: EC50 PC/PG 1st) was over 1500 nM. For the same compound, the EC50 ([2]; PC/PG LUVs, 2nd experiment, read-out: EC50 PC/PG 2nd) was over 1500 nM and the EC50 ([2]; PC/PG LUVs, 3rd experiment, read-out: EC50 PC/PG 3rd) was over 1500 nM.
